{"source": "patent US20130281512A1", "about": "“AGENTS FOR TREATING DISORDERS INVOLVING MODULATION OF RYANODINE RECEPTORS” (LES LABORATOIRES SERVIER, priority 2012, published 2013)", "key": {"WT mice": {"system": "WT mice", "assay": "Voluntary wheel activity and EDL specific force in WT (C57BL/6) mice", "assay_type": "in vivo, mouse", "details": "50 mg/kg/d", "procedure": "Voluntary activity on wheel, body weight, and average water consumption were measured in the first 3 weeks. Specific muscle force was measured after 4 weeks of treatment, at the end of the study.\nDistance traveled (Km/day) over a 24 hr period was analyzed as an index of improved functional activity (see, DMD_M.2.1.002 SOP at http://www.treat-nmd.eu/). At the conclusion of the study, Extensor digitorum longus (EDL) muscle was isolated for muscle force analysis as further described hereinbelow. Blood was collected from each mouse by retro-orbital bleeds at the end of the study (after end of dark cycle—about 7 AM) to assess drug plasma concentrations. Experiments were blinded.\nAt the end of the study, EDL muscle was dissected from hind limbs for isometric force analysis using the 407A Muscle Test System from Aurora Scientific (Aurora, Ontario, Canada). […] Force-frequency relationships were determined by triggering contraction using incremental stimulation frequencies (5-250 Hz for 200 ms at suprathreshold voltage). […] At the end of the force measurement, the length (Lo) of the EDL muscle while sutured in the Aurora system was measured excluding the tendons. […] The cross-sectional area (mm^2) of the EDL muscle was calculated by dividing the EDL muscle weight by the EDL muscle length and the mammalian muscle density constant of […] (Yamada, T., et al. Arthritis and rheumatism 60:3280-3289). […]"}, "[1]": {"assay": "Metabolic stability in rat hepatic microsomes (Clint, predicted MF %)", "assay_type": "in vitro ADME", "procedure": "Compound solubilization: Stock solutions were made in DMSO, and working solutions in water containing 1 mg/ml BSA.\nPrediction of metabolic bioavailability: Metabolic bioavailability predictions (MF %) were based on in vitro metabolic stability measurements with hepatic microsomes assuming total absorption. Briefly, unchanged drugs were quantified by LC-MS-MS following incubation (10^−7M) with rat and human hepatic microsomes (0.33 mg protein/ml) after 0, 5, 15, 30 and 60 min of incubation in presence of NADPH (1 mM). Enzymatic reaction was stopped with methanol (v/v) and proteins were precipitated by centrifugation. The in vitro intrinsic clearances (Clint_mic) expressed as ml/min/g protein were the slope (after LN linearization) of the unchanged drug remaining concentration versus incubation time. In vitro Clint were then scaled up to in vivo whole body (vivoClint) using 0.045 mg prot/kg of liver and liver weight of 11 g for the rat and 1.2 kg for Man."}}, "data": [{"compound": "COc1ccc2c(c1)CN(Cc1ccc(C(=O)O)cc1)CCS2", "note": "[Compound 1, 4-((7-Methoxy-2,3-dihydrobenzo[f][1,4]thiazepin-4(5H)-yl)methyl)benzoic acid]", "values": [{"measurement": "travel distance on voluntary wheel", "setting": "WT mice", "result": "No effect"}, {"measurement": "specific muscle force (EDL)", "setting": "WT mice; 4 weeks", "result": "No effect"}, {"measurement": "Class (metabolic bioavailability)", "setting": "[1]", "result": "Inter- mediate"}, {"measurement": "Clint_mic rat (in vitro intrinsic clearance)", "setting": "[1]; 10^-7 M, 0.33 mg protein/ml, NADPH", "result": 101, "unit": "ml/min/gprot"}, {"measurement": "MF mic % (metabolic bioavailability)", "setting": "[1]; predicted from Clint assuming total absorption", "result": 30, "unit": "%"}]}]}
